The subject of one test is A/WSN/33 virus. In words: Influenza A viral growth assay (viral titer of culture media). The conditions noted are these: A/WSN/33 (WSN), 12.5uM; for viral titer of culture media, ave: average of #1-3 exp (n=9); for viral titer of culture media, individual replicate: replicates of #1-3 exp. In kind it is cell-based, influenza A H1N1 virus.
A further test relates to A/PR/8/34 virus. The test is described as above. It is filed as cell-based, influenza A H1N1 virus. On the set-up: viral titer of culture media, individual replicate / viral titer of culture media, ave: unit not given here. The conditions noted are these: A/PR/8/34 (PR8), 12.5uM; for viral titer of culture media, ave: average of #1-3 exp (n=9); for viral titer of culture media, individual replicate: replicates of #1-3 exp.

Each structure is given as a SMILES string. “And” between values parts separate entries of the source, which are not always exact repeats. Equal values may be shown once.

Consider `C=C[C@]1(C)CC[C@H](C(=C)C)[C@@H](c2ccc(O)cc2)C1` [(1R,3R,4R)-cyclobakuchiol A], for which the “viral titer of culture media, ave” value with A/WSN/33 virus (12h) worked out at 10300; with A/WSN/33 virus (24h), 22944444; with A/WSN/33 virus (48h), 177111111; in the test on A/WSN/33 virus (72h) it was 106555556; in the test with A/PR/8/34 virus (12h), 31111.1; in the test on A/PR/8/34 virus (24h) it was 25555.6. Moreover, the “viral titer of culture media, ave” value in the test with A/PR/8/34 virus (48h) amounted to 28888.9; with A/PR/8/34 virus (72h), 20000. Besides, the “viral titer of culture media, individual replicate” value (“viral titer … individual replicate” below) in the test on A/WSN/33 virus (12h) was 300 and 1400 and 1000 and 40000 and 10000 (5×); in the test with A/WSN/33 virus (24h), 2600000 and 3900000 and 1000000 and 60000000 and 10000000 and 9000000 and 20000000 and 30000000 and 70000000; with A/WSN/33 virus (48h), 50000000 and 54000000 and 10000000 and 210000000 (2×) and 230000000 and 190000000 and 380000000 and 260000000; in the test with A/WSN/33 virus (72h) it was 10000000 (2×) and 7000000 and 200000000 and 150000000 (2×) and 60000000 and 330000000 and 42000000; in the test with A/PR/8/34 virus (12h), 90000 and 60000 and 30000 (2×) and 10000 (3×) and 20000 (2×); in the test on A/PR/8/34 virus (24h) it was 40000 and 30000 (3×) and 10000 (3×) and 50000 and 20000. Also, the “viral titer … individual replicate” value with A/PR/8/34 virus (48h) was 50000 (2×) and 30000 (2×) and 10000 (2×) and 20000 (2×) and 40000; in the test on A/PR/8/34 virus (72h), 10000 (6×) and 50000 and 30000 and 40000.

For the compound `C=C[C@]1(C)CC[C@@H](C(C)(C)O)[C@H](c2ccc(O)cc2)C1` [(1R,3S,4S)-cyclobakuchiol D], the “viral titer of culture media, ave” value in the test on A/WSN/33 virus (12h) stood at 10344.4; in the test on A/WSN/33 virus (24h) it was 25855556; in the test on A/WSN/33 virus (48h) it was 191111111; in the test on A/WSN/33 virus (72h) it was 140200000; in the test on A/PR/8/34 virus (12h), 23333.3; in the test on A/PR/8/34 virus (24h), 46666.7. Further, the “viral titer of culture media, ave” value was found to be 42222.2 in the test with A/PR/8/34 virus (48h) and 51111.1 in the test with A/PR/8/34 virus (72h). In addition, the “viral titer … individual replicate” value with A/WSN/33 virus (12h) was 600 and 2000 and 500 and 20000 (3×) and 10000 (3×); in the test on A/WSN/33 virus (24h) it was 2700000 and 4000000 and 1000000 and 30000000 (2×) and 10000000 and 80000000 and 25000000 and 50000000; with A/WSN/33 virus (48h), 80000000 and 50000000 (2×) and 300000000 (2×) and 250000000 (3×) and 190000000; in the test on A/WSN/33 virus (72h), 90000000 and 14000000 and 7800000 and 140000000 and 130000000 and 100000000 and 210000000 and 280000000 and 290000000; in the test with A/PR/8/34 virus (12h), 30000 (4×) and 40000 and 20000 and 10000 (3×); in the test on A/PR/8/34 virus (24h), 100000 and 30000 and 80000 and 20000 and 10000 (2×) and 50000 (2×) and 70000. Moreover, the “viral titer … individual replicate” value in the test on A/PR/8/34 virus (48h) was 40000 (2×) and 30000 and 90000 and 10000 (2×) and 20000 and 80000 and 60000; in the test on A/PR/8/34 virus (72h), 100000 (2×) and 10000 (3×) and 40000 and 20000 and 90000 and 80000.

As for `C=C[C@]1(C)CC[C@@H](C(=C)C)[C@H](c2ccc(O)cc2)C1` [(1R,3S,4S)-cyclobakuchiol B], the “viral titer of culture media, ave” value with A/WSN/33 virus (12h) is on record as 12633.3; in the test with A/WSN/33 virus (24h), 25455556; in the test with A/WSN/33 virus (48h), 275666667; in the test on A/WSN/33 virus (72h) it was 208055556; in the test with A/PR/8/34 virus (12h), 24444.4; with A/PR/8/34 virus (24h) it was 30000. Moreover, the “viral titer of culture media, ave” value with A/PR/8/34 virus (48h) amounted to 41111.1; with A/PR/8/34 virus (72h), 58888.9. In addition, the “viral titer … individual replicate” value in the test on A/WSN/33 virus (12h) is 1000 (2×) and 1700 and 10000 (3×) and 20000 (2×) and 40000; with A/WSN/33 virus (24h), 2000000 (2×) and 300000 and 80000000 and 30000000 and 16000000 and 40000000 and 8800000 and 50000000; in the test with A/WSN/33 virus (48h) it was 100000000 and 160000000 and 61000000 and 430000000 and 420000000 and 440000000 and 180000000 and 300000000 and 390000000; in the test on A/WSN/33 virus (72h) it was 35000000 and 20000000 and 27500000 and 320000000 and 390000000 and 350000000 and 250000000 and 280000000 and 200000000; in the test with A/PR/8/34 virus (12h) it was 70000 and 30000 (2×) and 10000 (3×) and 20000 (3×); with A/PR/8/34 virus (24h), 60000 and 50000 (2×) and 20000 (3×) and 10000 (2×) and 30000. Also, the “viral titer … individual replicate” value in the test with A/PR/8/34 virus (48h) was 40000 (3×) and 30000 (2×) and 80000 (2×) and 20000 and 10000; in the test on A/PR/8/34 virus (72h), 30000 (2×) and 40000 and 20000 and 10000 (2×) and 250000 and 80000 and 60000.

Turning to `C=C[C@@](C)(/C=C/c1ccc(O)cc1)CCC=C(C)C` [天然型バクチオール], the “viral titer … individual replicate” value in the test on A/WSN/33 virus (12h) was 900 and 300 and 1100 and 30000 (2×) and 10000 (3×) and 50000; in the test with A/WSN/33 virus (24h), 300000 and 1500000 and 900000 and 7000000 and 16000000 and 9000000 and 20000000 and 5000000 and 70000000; in the test on A/WSN/33 virus (48h), 50000000 and 74000000 and 26000000 and 320000000 and 280000000 and 330000000 and 260000000 and 290000000 and 350000000; in the test on A/WSN/33 virus (72h), 10000000 and 29000000 and 52000000 and 150000000 and 240000000 and 210000000 and 200000000 (2×) and 260000000; in the test with A/PR/8/34 virus (12h), 10000 (4×) and 30000 (3×) and 40000 (2×); in the test with A/PR/8/34 virus (24h), 50000 and 10000 (5×) and 40000 (2×) and 20000. Moreover, the “viral titer … individual replicate” value with A/PR/8/34 virus (48h) is 50000 and 20000 and 40000 and 10000 (3×) and 30000 (3×); in the test with A/PR/8/34 virus (72h), 30000 (2×) and 20000 (2×) and 40000 (2×) and 10000 (2×) and 80000. Also, the “viral titer of culture media, ave” value with A/WSN/33 virus (24h) came to 14411111; in the test with A/WSN/33 virus (48h), 220000000; with A/WSN/33 virus (72h), 150111111; in the test with A/PR/8/34 virus (24h), 22222.2; with A/PR/8/34 virus (48h), 25555.6; with A/PR/8/34 virus (72h), 31111.1.

Regarding `C=C[C@]1(C)CC[C@H](C(C)(C)O)[C@@H](c2ccc(O)cc2)C1` [(1R,3R,4R)-cyclobakuchiol C], the “viral titer of culture media, ave” value in the test on A/WSN/33 virus (12h) stood at 8288.89; in the test with A/WSN/33 virus (24h), 21277778; in the test on A/WSN/33 virus (48h), 246888889; with A/WSN/33 virus (72h), 155211111; in the test with A/PR/8/34 virus (12h) it was 33333.3; with A/PR/8/34 virus (24h), 52222.2. Moreover, the figures for the “viral titer of culture media, ave” value with A/PR/8/34 virus (48h) and with A/PR/8/34 virus (72h) were 37777.8 and 43333.3, respectively. Moreover, the “viral titer … individual replicate” value is 3000 and 1000 and 600 and 10000 (5×) and 20000 in the test with A/WSN/33 virus (12h); 1600000 and 1000000 and 900000 and 30000000 (2×) and 21000000 and 9000000 and 70000000 and 28000000 in the test on A/WSN/33 virus (24h); 100000000 and 150000000 and 62000000 and 140000000 and 350000000 (2×) and 410000000 and 280000000 and 380000000 with A/WSN/33 virus (48h); 10000000 and 20000000 and 6900000 and 130000000 and 170000000 and 230000000 (2×) and 300000000 (2×) in the test with A/WSN/33 virus (72h); 40000 and 60000 (2×) and 30000 (2×) and 10000 (3×) and 50000 with A/PR/8/34 virus (12h); 190000 and 20000 and 90000 and 10000 (3×) and 70000 and 40000 and 30000 in the test with A/PR/8/34 virus (24h). The “viral titer … individual replicate” value in the test with A/PR/8/34 virus (48h) is 50000 (2×) and 20000 and 80000 and 10000 (3×) and 40000 and 70000; in the test with A/PR/8/34 virus (72h) it was 40000 and 20000 (2×) and 90000 and 10000 (2×) and 50000 and 70000 and 80000.
